Like-named read-outs stand apart in the source and are kept apart here.
Experiments:
Format in all cases: cell-based, human
U373 cells [1] = tested on: U373 cells
Description: Lactate dehydrogenase (LDH) assay: To detect direct GA-induced cell lysis we performed LDH release assays (Roche Molecular Diagnostics). […] Approximately 5×10^4 U373 cells/well were cultured in 96-well plates in the presence of increasing concentrations of individual GA or control peptide from 0.5 μM to 500 μM. Cells treated with 2% triton-X 100 (Sigma Aldrich, St. Louis, Mo.) for 10 minutes served as positive control. Untreated cells served as controls for spontaneous LDH-release. Specific LDH-release was calculated according to the following formula: LDH-release %=100*(GA or control peptide treated cells—untreated cells)/(positive control-untreated cells). The IC50 values were extrapolated by logarithmic estimation. The LD50 in mg/kg was predicted using the formula, Log (LD50)=0.506×(log IC50)+0.475.
Effects of PGA on membrane integrity and apoptosis: The top five PGA were covalently synthesized with the cell penetrating TAT (transcriptional transactivation) peptide to facilitate intracellular delivery (Genescript, N.J.). Membrane integrity of U373 microglial cells exposed to increasing concentration of each PGA from 0.5 μm to 500 μM was assessed by the leakage of intracellular lactate dehydrogenase (LDH) into culture medium (Roche, Ind.).

[2] = tested on: activated p65 NF-κB subunit; assay: Nuclear p65 DNA binding (TransAM NF-κB ELISA) in HFB; settings: Aβ1-42 exposed, 4 hours
Description: Fetal brain materials (10-20 g) were shipped overnight in chilled Hibernate-E medium (Invitrogen) supplemented with B27 (Invitrogen), GlutaMAX (Invitrogen) and antibiotic-antimycotic solution (Cellgro). HFB were prepared and cultured as described. Briefly, cells were cultured in Neurobasal medium (Invitrogen) without phenol red supplemented with 1×B27, […] GlutaMAX, 1×antibiotic cocktail, 5 ng/mL recombinant fibroblast growth factor 2 (bFGF) (Invitrogen), and 2 μL/mL Normocin (InVivoGen, San Diego, Calif., USA). Cells were counted and seeded onto poly-D-lysine (Sigma-Aldrich) coated 24-well plates (Corning, Lowell, Mass., USA) at 1.5×10^5 cells per well and maintained at 37° C. in a 5% CO2 incubator. Half media changes were performed every 4th day of culture and morphology was monitored via phase contrast microscopy. Culture medium was removed from cells on day 17 (DIV17) and replaced with Neurobasal medium with B27. Appropriate wells were then added vehicle, or carrier peptide or individual GA or control peptide (at 50 μM) for 30 min followed by exposure to Aβ1-42 at a final concentration of 10 μM/well and incubated for 4 hours or 48 hours. Cells and conditioned media were harvested and stored for further analysis. Relative ATP concentration was measured using the CTG kit (Promega). Data is presented as ΔRLU=RLU of Aβ1-42 exposed cells-RLU unexposed cells. Conditioned media collected were assessed for specific cytokines using the OptEIA kits (BD Biosciences). Nuclear and cytoplasmic fractions were extracted using the CelLytic™ NuCLEAR™ Extraction Kit (Sigma) following manufacturer's protocol. Five microgram of nuclear extracts was incubated in a 96-well plate coated with oligonucleotides containing the NF-κβ consensus nucleotide sequence (5′-[…]-3′) (SEQ ID NO: 30). The activated NF-κβ bound to DNA was detected by anti-p65 antibody followed by a peroxidase coupled secondary antibody and substrate using the TransAM kit protocol (Active Motif). Nuclear extracts of Raji cells was used as the positive control.
Select PGA protects against Aβ1-42 induced toxicity, prevents p65 activation and cytokine response in human fetal brain (HFB) cells. […] Viability in terms of relative luminescent Units (RLU) was quantified using a Glowmax luminometer (Promega, Wis.). Data are presented as ARLU=RLU of Aβ1-42 exposed cells-RLU of unexposed cells. […] The mean RLU of vehicle treated HFB varied between 7352.75+/−1265.2 and 16157.5+/−4950. […] The culture supernatants were assessed for cytokines by ELISA (R&D Systems, Minn.). […] Primary HFB cultured similarly and harvested at the end of 4 hours was assessed for nuclear p65 using TransAM kit for NF-κB p65 (Active Motif, Calif.).

U373 cells [3] = assay: Annexin-V and propidium iodide apoptosis by flow cytometry; settings: score 1/0
Description: Detection apoptosis by flow cytometry: To further assess cell cytotoxicity, the apoptotic effects of individual GA or control peptide was evaluated by the Annexin-V and propidium iodide (PI) dual staining method (Annexin-V-Fluos staining kit, Roche Diagnostics, Mannheim, Germany). As opposed to apoptotic cells, necrotic cells with ruptured cell membrane take up PI, the DNA binding dye. Thus, cells which take up both fluorochromes are a mixture of apoptotic and necrotic cells, whereas cells that exclude PI but bind Annexin V are (early) apoptotic cells. U373 cells cultured with varying concentrations of individual GA or control peptide (0.5 μM to 50 μM) for 24 hours were centrifuged and suspended in 100 μl of Annexin V/PI labelling solution (20 μl each of Annexin-V-Fluos labelling reagent and PI in 1 ml of binding buffer) for 15 min at room temperature. After washing the cells were resuspended in PBS:1% paraformaldehyde and analyzed using a FACScan flow cytometer (BD Biosciences, San Jose, Calif.).

Aβ1-42 exposed HFB cells = assay: Cytokines in culture medium of Aβ1-42 exposed HFB; settings: PGA at IC50 concentration
HFNC = assay: Morphology of HFNC under inverted bright field microscope
[4] = Example 9, PGA synthesized with TAT, read-out: IC50 of LDH release extrapolated from regression analysis
[5] = concentration stated for use in HFNC cultures, Example 11, read-out: IC50 concentration

Row | Substance | IC50 (U373 cells [1]; [4]) | IC50 (U373 cells [1]; [5]) | nuclear p65 ([2]; PGA at IC50 concentration) | % apoptosis at LD50 (U373 cells [3]) | AIL-1p concentration in culture supernatant (not shown) (Aβ1-42 exposed HFB cells) | AIL-6 concentration in culture supernatant (Aβ1-42 exposed HFB cells) | morphology of HFNC (HFNC) | nuclear p65 ([2]; 50 μM peptide)
1 | Ac-EPAPLAPYG-NH2 [PGA-2] | 1.95 µM | 169 µM | decreased nuclear p65 | 1 (<25) | significantly lower | significantly lower | did not affect the morphology | 
2 | Ac-EPAPESPQV-NH2 [PGA-4] | 1.5 µM | 102 µM | decreased nuclear p65 | 1 (<25) | significantly lower | significantly lower | did not affect the morphology | 
3 | Ac-EPAPLAPYG-NH2 [GA-1] |  |  |  |  |  |  |  | trend towards decreased nuclear p65
4 | Ac-EPAPESPQV-NH2 [GA-2] |  |  |  |  |  |  |  | trend towards decreased nuclear p65

From patent US11478526B2, “Methods of reducing neuroinflammation or toxicity induced by amyloid beta (abeta) using glucocorticoid induced leucine zipper (GILZ) analog peptides” (INDIANA UNIVERSITY RESEARCH AND TECHNOLOGY CORPORATION, priority 2016, dated 2022)
